Laboratory results taken from paper PMC9695041, “The Anti-Breast Cancer Activity of Dihydroartemisinin-5-methylisatin Hybrids Tethered via Different Carbon Spacers” (Molecules, 2022).

How the values were obtained:
[1] = tested on: MCF-7 breast cancer cell line; assay: MTT antiproliferative assay, MCF-7; format: cell-based
Description: (§1) The antiproliferative activity and cytotoxicity of DHA-5-methylisatin hybrids 6a–c and 7a–m against MCF-7, MDA-MB-231, MCF-7/ADR, and MDA-MB-231/ADR (Purchased from Procell) breast cancer cell lines as well as MCF-10A were assessed by 3-(4,5-dimethylthiazol-2-yl)-2,5-diphenyltetrazolium bromide (MTT) assay.
(§2) MCF-7, MDA-MB-231, MCF-7/ADR, and MDA-MB-231/ADR breast cancer cell lines (2 × 10^3) were plated in each well of a 96-well plate and were allowed to adhere and spread for 24 h. The dihydroartemisinin-5-methylisatin hybrids 6a–e and 7a–m were added to a final concentration of 100 µM, and the cells were cultured for 24 h at 37 °C. 3-(4,5-dimethyl-2-thiazolyl)-2,5-diphenyltetrazolium bromide (MTT) solution (10 µL) was added to each well, and the cultures were incubated for an additional 4 h. A further 100 µL of MTT solution was added and incubation continued overnight. The absorbance at 540 nm was determined in each well with a 96-well plate reader. The growth of the treated cells was compared with that of untreated cells.

[2] = tested on: MCF-7/ADR breast cancer cell line; assay: MTT antiproliferative assay, MCF-7/ADR; format: cell-based; conditions: Homo sapiens, NCI/ADR-RES, MCF-7/ADR (drug-resistant)
Description: as §1, §2

[3] = tested on: MDA-MB-231 breast cancer cell line; assay: MTT antiproliferative assay, MDA-MB-231; format: cell-based
Description: as §1, §2

[4] = tested on: MCF-7, MDA-MB-231, MCF-7/ADR, and MDA-MB-231/ADR breast cancer cell lines; assay: MTT antiproliferative assay, summary over the breast cancer cell line panel; format: cell-based; conditions: range over the four breast cancer cell lines; read-out: IC50 range across MCF-7, MDA-MB-231, MCF-7/ADR and MDA-MB-231/ADR
Description: as §1, §2

[5] = MTT cytotoxicity assay, MCF-10A; conditions: human, MCF-10A normal breast cells
Description: as §1, §2

[6] = tested on: MDA-MB-231/ADR breast cancer cell line; assay: MTT antiproliferative assay, MDA-MB-231/ADR; format: cell-based; conditions: Homo sapiens, MDA-MB-231/ADR (drug-resistant)
Description: as §1, §2

IC50 ([1]; Homo sapiens, MCF7, MCF-7, MTT assay): 19.4 µM
IC50 [2]: 20.1 µM
IC50 ([3]; Homo sapiens, MDA-MB-231, MTT assay): 15.3 µM
IC50 [4]: 15.3 to 20.1 µM
IC50 [6]: 18.8 µM
Structure (SMILES): Cc1ccc2c(c1)C(=NO)C(=O)N2CCOC1O[C@@H]2O[C@@]3(C)CC[C@H]4[C@H](C)CC[C@@H]([C@H]1C)[C@@]24OO3 (stereo partly drawn) [Hybrid 7a, 3-(Hydroxyimino)-5-methyl-1-(2-(((3R,5aS,6R,8aS,9R,12R,12aR)-3,6,9-trimethyldecahydro-12H-3,12-epoxy[1,2]dioxepino[4,3-i]isochromen-10-yl)oxy)ethyl)indolin-2-one]
SI1: selectivity index IC50(MCF-10A)/IC50(MCF-7) ([1]; IC50(MCF-10A)/IC50(MCF-7)): >5.15
SI2: selectivity index IC50(MCF-10A)/IC50(MDA-MB-231) ([3]; IC50(MCF-10A)/IC50(MDA-MB-231)): >6.53
IC50 at 24 h [5]: > 100 µM
